Experimental data published in patent US7400979B2, “Method of identifying inhibitors of Lck” (Abbott Laboratories, priority 2001, dated 2008).

Legend:
[1] = molecular target: Lck protein tyrosine kinase (Homo sapiens, UniProt P06239); test: Lck inhibition assay: ELISA for protein tyrosine kinases; format: biochemical; details: poly(Glu4Tyr) substrate, 5 μM ATP, 5% DMSO, result in words
From the text: (§1) The disclosed protocol was adapted for determining activity with respect to a specific protein tyrosine kinase, e.g. Lck. […] Adaptation of these protocols for determining the activity of a compound against other protein tyrosine kinases, for example Hck, are well within the abilities of those skilled in the art. […] The following procedure was used to assay the inhibitory effect of compounds of this invention on Lck protein tyrosine kinase activity:
Store on ice. […] Store on ice.

Hck = Hck (Homo sapiens, UniProt P08631); test: ELISA for protein tyrosine kinases adapted to Hck (inhibitor selectivity); format: biochemical; details: result in words; b177 defines selective as IC50 for Lck at least 10-fold lower than for the related protein
From the text: as §1, with “activity: […]” for “activity:”

Sequence of Lck protein tyrosine kinase (P06239 whole entry): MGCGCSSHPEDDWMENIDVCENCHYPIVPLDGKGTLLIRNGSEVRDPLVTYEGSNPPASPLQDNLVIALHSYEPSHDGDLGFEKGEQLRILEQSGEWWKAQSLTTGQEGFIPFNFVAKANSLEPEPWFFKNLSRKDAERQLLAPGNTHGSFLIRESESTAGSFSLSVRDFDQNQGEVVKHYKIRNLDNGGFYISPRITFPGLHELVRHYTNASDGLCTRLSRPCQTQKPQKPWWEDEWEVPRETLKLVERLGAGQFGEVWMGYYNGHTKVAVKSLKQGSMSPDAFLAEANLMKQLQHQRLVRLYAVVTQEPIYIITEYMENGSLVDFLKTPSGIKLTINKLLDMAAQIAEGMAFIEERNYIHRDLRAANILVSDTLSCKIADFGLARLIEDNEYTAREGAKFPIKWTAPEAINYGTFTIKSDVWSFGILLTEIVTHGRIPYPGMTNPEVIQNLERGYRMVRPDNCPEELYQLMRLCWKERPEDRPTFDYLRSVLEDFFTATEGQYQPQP
Sequence of Hck (P08631 whole entry): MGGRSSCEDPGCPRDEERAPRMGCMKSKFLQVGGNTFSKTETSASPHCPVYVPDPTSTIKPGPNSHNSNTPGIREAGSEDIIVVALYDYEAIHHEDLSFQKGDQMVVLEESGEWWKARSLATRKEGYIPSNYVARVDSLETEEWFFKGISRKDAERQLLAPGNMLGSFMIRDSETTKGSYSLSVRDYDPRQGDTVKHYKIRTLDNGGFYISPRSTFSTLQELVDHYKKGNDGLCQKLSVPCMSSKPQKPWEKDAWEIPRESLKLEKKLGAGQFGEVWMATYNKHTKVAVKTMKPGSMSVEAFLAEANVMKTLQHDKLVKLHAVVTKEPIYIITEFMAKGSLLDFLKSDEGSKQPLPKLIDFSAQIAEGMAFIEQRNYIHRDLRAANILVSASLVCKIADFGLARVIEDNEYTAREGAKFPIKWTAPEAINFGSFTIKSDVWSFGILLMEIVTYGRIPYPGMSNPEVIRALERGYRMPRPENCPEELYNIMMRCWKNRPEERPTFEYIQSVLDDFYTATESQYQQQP

Lck inhibition (in vitro potency) [1]	selectivity for Lck over Hck (Hck)	SMILES
potent inhibitor of human Lck		CN1CCN([C@H]2CC[C@H](n3nc(-c4ccc(Nc5n[nH]c6ccccc56)cc4)c4c(N)ncnc43)CC2)CC1 [inhibitor 15, trans-3-[4-(1H-3-indazolylamino)phenyl]-1-[4-(4-methylpiperazino)cyclohexyl]-1H-pyrazolo[3,4-d]pyrimidin-4-amine]
potent inhibitor of Lck	inhibit Lck selectively over Hck	CNCCCN(C)C/C=C/c1[nH]c(=O)c2c(ccc3nc(Nc4c(Cl)cccc4Cl)n(C)c32)c1C [inhibitor 13, 2-(2,6-dichloroanilino)-1,6-dimethyl-7-((E)-3-{methyl[3-(methylamino)propyl]amino}-1-propenyl)-8,9-dihydro-1H-imidazo[4,5-h]isoquinolin-9-one]
